The values that follow come from article PMC8131206 (Nature biomedical engineering, 2021).

Where no end group is shown, it is not given here. Where only a bound is given, the exact number is not on record here.

Test [1] deals with M. tuberculosis H37Ra (attenuated). Conditions: 96 h.
The test system of test [2] is M. smegmatis Mc^2 155. Conditions: Mc^2 155, 48 h.
Test [3] relates to S. aureus (MR) USA300. The note with it: USA300, 24 h.
In test [4] the test system is S. aureus (MS) NRS72. The note with it: MS) NRS72, 24 h.
In test [5] the test system is S. aureus (MS) Newman. The note with it: 24 h.
The test system of test [6] is S. mitis NCTC 12261. Conditions: NCTC 12261, 24 h.
Test [7] concerns E. faecalis ATCC 29212. Conditions: ATCC 29212, 24 h.
For test [8], the system named is K. pneumoniae NCTC 9633. Conditions: NCTC 9633, 24 h.
Test [9] concerns E. coli DH5α. The note with it: 24 h.
In test [10] the test system is S. enterica CDC 6516–60. The note with it: CDC 6516–60, 24 h.
In test [11] the test system is P. aeruginosa PAO1. The note with it: PAO1, 24 h.
The test system of test [12] is A. baumannii 2208. Conditions: 2208, 24 h.
Test [13] relates to H. influenzae TD-4. The note with it: TD-4, 24 h.

Turning to KRWWKWWRR-NH2 [AMP2], the MIC in test [1] is on record as 10 µM; in [2] it was 20 µM; in test [3] it was 80 µM; in test [4], 80 µM; in [5], 40 µM; in [6] it was above 80 µM. The MIC in test [7] is above 80 µM; in [8], 20 µM; in test [9] it was 80 µM; in [10], 80 µM; in test [11] it was 20 µM; in test [12], 80 µM. Moreover, the MIC in test [13] was found to be 80 µM.

Turning to RRWWRWVVW-NH2 [AMP3], the MIC in test [1] was determined as 20 µM; in [2], 20 µM; in [3], 20 µM; in test [4] it was 20 µM; in [5], 20 µM; in test [7] it was 80 µM. The MIC in test [8] is 2.5 µM; in test [9], above 80 µM; in [10], 80 µM; in test [11], 80 µM; in test [12] it was 10 µM.

Regarding WKWLKKWIK-NH2 [AMP1], the MIC is 20 µM in test [1]; 20 µM in test [2]; above 80 µM in test [3]; above 80 µM in [4]; 80 µM in test [5]; 20 µM in test [6]. In addition, the MIC in test [7] is 80 µM; in test [8], 20 µM; in test [9], above 80 µM; in test [10] it was 40 µM; in [11], 10 µM; in [12], 25 µM. The MIC in [13] came out at 80 µM.
